{
  "source": "patent US20240366577A1",
  "about": "“CONTROLLED LONG-TERM DRUG DELIVERY AND METHODS THEREOF” (THE JOHNS HOPKINS UNIVERSITY, priority 2021, published 2024)",
  "format_in_all_cases": "in vivo, BALB/c mice",
  "key": {"4T1 tumors": {"system": "4T1 tumors", "assay": "orthotopic parent 4T1 TNBC tumor growth", "procedure": "Namely, 4T1 tumors were treated with either PBS (PBS CONTROL), intraperitoneal (IP) bolus sorafenib (25 mg/kg BW/day) (IP BOLUS), 3 mg IP injected sorafenib crystals (IP CRYSTAL 3 MG), or sorafenib crystals (3 mg: SC CRYSTAL (3 MG); 10 mg: SC CRYSTAL (10 MG)) injected around developed tumors in the subcutaneous (SC) mammary fatpad. Furthermore, to truly test the utility of crystalline sorafenib in treating such an aggressive TNBC model, treatment was carried out retrospectively and only started once tumor volumes reached ˜225-250 mm^3. A positive control liquid-dissolved and daily injected drug treatment group was included, where mice were dosed with a daily bolus of 25 mg sorafenib/kg of mouse BW. […] This may be supported by our prior observation that in the IP compartment, where there is higher 10 liquid turnover as compared to the SC space, crystalline drugs usually have a faster kinetic of release over time.\n4T1 or 4T1-luc2 cells were trypsinized using 0.25% Trypsin-EDTA, then diluted with the appropriate complete culture media and spun in a centrifuge at 300 g for 5 min. The supernatant was aspirated, and the pellet was re-suspended in serum-free RPMI 1640. The solution was centrifuged again, and the supernatant aspirated. Re-suspension, centrifugation, and aspiration was repeated once more. 5 mL of RPMI-1640 was then added to the pellet. 10 μL of the cell suspension was removed and mixed with 10 μL of Trypan blue stain 0.4% (ThermoFisher). Cells were counted with a Countess automated cell counter. Cell solutions were centrifuged one more time, the supernatant aspirated, and the pellet resuspended in the amount of RPMI-1640 required to achieve a concentration of 5×10^5 cells/200 μL of media. Tumor cells were then administered orthotopically in naive (and anesthetized) BALB/c mice into the right inguinal mammary fat pad 21 with 200 μL aliquots of the cell suspension, using an insulin syringe. Tumors were measured externally using a digital caliper, and volume was calculated (!″* (length * height) *−length * height). Except in the 4T1-luc2 trial, treatment began once tumors reached an average volume of 220-250 mm3. Experimental end point was deemed when solid tumors reached a volume of no more than 2000 mm3. Tumors were extracted and harvested, half stored in 4% paraformaldehyde diluted from 32% (Cat#50980495, Electron Microscopy Services) with DI H2O, and half frozen in liquid nitrogen, then stored at −80° C.\nOnce tumors had reached an average volume of ˜220-250 mm^3, mice were administered either subcutaneously or intraperitoneally with 3 or 10 mg of crystalline sorafenib, diameter ˜150-200 μm, suspended in 200 μL of sterile saline using an 18 g needle. […]"}, "tumor endothelial CD31": {"system": "tumor endothelial CD31", "assay": "immunofluorescent staining of tumors: CD31", "conditions": "single SC injection of 3 mg or 10 mg crystals, compared to daily bolus", "procedure": "To confirm the effects seen at the level of RNA, immunofluorescent staining of excised tumor samples that were in parallel fixed with paraformaldehyde and embedded in paraffin was performed. […] Co-localization of CD31 with aSMact was, as expected, not linked in crystal sorafenib-treated tumors, where CD31 reduction was more extensive than with daily, bolus sorafenib.\nImmunofluorescence imaging was used to determine anti-angiogenic drug efficacy. Tumor tissues were retrieved from mice and fixed overnight using 4% paraformaldehyde at 4° C. After fixation, retrieved tissue samples were moved to 70% ethanol. Samples were then processed for paraffin embedding, sectioning and staining. […] Next, tissues were incubated for 1 hour in an immunostaining cocktail solution consisting of NucBlue (Thermo), specific marker probes (1:200 dilution) anti-CD31 (Cat#DIA-310, HistoBioTec) and anti-alphaSmoothMuscle actin-Cy3 (Sigma) in Dako staining buffer. For CD31, a goat anti-rat alexa-fluor647 secondary antibody was also used (1:400). After staining, samples were rinsed again with 1X PBS three times prior to slides being cover slipped with Pro-long anti-fade Gold (Thermo). […] For stain quantification, images were converted into 8-bit image files, a background threshold was determined using NIH ImageJ, and then all images were processed using an NIH ImageJ macro to quantify the area of positive stain. […]"}, "[1]": {"assay": "body weight of treated tumor-bearing mice", "conditions": "crystals in ~100-200 μl saline, IP or SC, any site or dose tested", "procedure": "However, due to the highly hydrophobic nature of sorafenib, its daily 25 mg/kg bolus dosing regimen required regular used of a solvent solution made up of ˜60% of the strong organic solvent dimethylsulfoxide (DMSO). […] In stark contrast, no DMSO was required for delivery of sorafenib crystals, for which instead simply utilized ˜100-200 μl of saline to inject into the desired IP or SC tissue sites.\nOnce tumors had reached an average volume of ˜220-250 mm^3, mice were administered either subcutaneously or intraperitoneally with 3 or 10 mg of crystalline sorafenib, diameter ˜150-200 μm, suspended in 200 μL of sterile saline using an 18 g needle. As a control, mice (n=4) were dosed with sorafenib dissolved at a concentration of 4 mg/mL in a solution of 65% DMSO (remainder DPBS). Mice were dosed either subcutaneously or intraperitoneally with a bolus of 25 mg drug per kg of bodyweight (BW), daily. As a secondary control, mice were dosed with the 65% DMSO/PBS vehicle to monitor changes in body score based on the vehicle alone."}},
  "data": [
    {"smiles": "CNC(=O)c1cc(Oc2ccc(NC(=O)Nc3ccc(Cl)c(C(F)(F)F)c3)cc2)ccn1", "note": "[crystalline sorafenib, sorafenib]", "values": [
      {"measurement": "tumor response (tumor volume)", "setting": "4T1 tumors; single IP injection, 3 mg crystals", "value": "less response than 10 mg SC but more than a comparable 3 mg dose injected SC"},
      {"measurement": "tumor response (tumor volume)", "setting": "4T1 tumors; single local SC injection, 10 mg crystals, start at ~225-250 mm^3", "value": "tumor stasis"},
      {"measurement": "tumor response (tumor volume)", "setting": "4T1 tumors; single local SC injection, 2-3 mg crystals, start at ~225-250 mm^3", "value": "tumor delays only"},
      {"measurement": "tumor endothelial CD31 levels (immunofluorescence)", "setting": "tumor endothelial CD31", "value": "reduction is greater"},
      {"measurement": "effect on bodyweight", "setting": "[1]", "value": "did not negatively affect bodyweight"}
    ]}
  ]
}
